In ChEMBL document CHEMBL4680133, “Novel nitroimidazole derivatives evaluated for their trypanocidal, cytotoxic, and genotoxic activities” (Eur J Med Chem, 2020) one finds selectivity ratio, GI50 and IC50 data, which are given here for two compounds.

As a reminder, the GI50 is the concentration at which growth is held to half of that of the control. In general, IC50 refers to the concentration that inhibits the measured activity by half.

A short description of series [1]: Selectivity index, ratio of GI50 for mouse RAW264.7 cells assessed as reduction in cell viability measured after 24 hrs by WST1 assay to IC50 for antitrypanosomal activity against bloodstream form of Trypanosoma cruzi Y trypomastigotes infected in African green monkey Vero cells. It counts as toxicity. The following applies: read-out: Selectivity Index.
The nature of series [2]: Cytotoxicity against mouse RAW264.7 cells assessed as reduction in cell viability measured after 24 hrs by WST1 assay. The class given is cell-based. A general note: Formazan colour is commonly taken as a measure of viable cells.
A short description of series [3]: Selectivity index, ratio of GI50 for mouse RAW264.7 cells assessed as reduction in cell viability measured after 24 hrs by WST1 assay to IC50 for antitrypanosomal activity against Trypanosoma cruzi Y axenic amastigotes infected in African green monkey Vero cells. It counts as toxicity. As to conditions: read-out: Selectivity Index.
Series [4] is described as follows: Cytotoxicity against human HepG2 cells assessed as reduction in cell viability measured after 24 hrs by WST1 assay. The class given is cell-based.
Series [5] has as its system Trypanosoma cruzi. Briefly: Antitrypanosomal activity against bloodstream form of Trypanosoma cruzi Y trypomastigotes infected in African green monkey Vero cells assessed as increase in parasite lysis measured after 24 hrs by Neubauer chamber method. It counts as functional, organism-based.
The nature of series [6]: Selectivity index, ratio of GI50 for human HepG2 cells assessed as reduction in cell viability measured after 24 hrs by WST1 assay to IC50 for antitrypanosomal activity against bloodstream form of Trypanosoma cruzi Y trypomastigotes infected in African green monkey Vero cells. The class given is toxicity. As to conditions: read-out: Selectivity Index.
The subject of series [7] is Trypanosoma cruzi. Put plainly: Antitrypanosomal activity against Trypanosoma cruzi Y axenic amastigotes infected in African green monkey Vero cells after 24 hrs by MTT assay. It counts as functional, organism-based.
Series [8] can be described thus: Selectivity index, ratio of GI50 for human HepG2 cells assessed as reduction in cell viability measured after 24 hrs by WST1 assay to IC50 for antitrypanosomal activity against Trypanosoma cruzi Y axenic amastigotes infected in African green monkey Vero cells. The class given is toxicity. The following applies: read-out: Selectivity Index.

Where only a bound is given, the exact number is not on record here.

For the compound `O=C(Cn1ccnc1[N+](=O)[O-])NCc1ccccc1` [BENZNIDAZOLE], the selectivity ratio at 24 h was more than 56 in series [1], more than 57 in series [3], more than 56 in series [6] and more than 57 in series [8]. Also, the concentration for 50% growth inhibition (GI50) at 24 h in series [2] and in series [4] was more than 500 µM each time. Besides, the IC50 was 8.8 µM in the series with Trypanosoma cruzi [5] and 8.7 µM in the series with Trypanosoma cruzi [7].

As to `Cn1cnc([N+](=O)[O-])c1-n1cc(-c2cccc(N)c2)nn1`, in the series with Trypanosoma cruzi [5], the IC50 amounted to 41.2 µM.
